Test results as given in patent EP4324461A1, “(E)-N-CINAMOYLAMINOALKANOLES WITH MELANOGENESIS INHIBITORY ACTIVITY” (UNIWERSYTET JAGIELLONSKI, priority 2022, dated 2024).

Key:
[1] = tested on: S. typhimurium TA1535; test: Ames microplate test, TA1535;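 also: bacteria exposed to compound 90 min at 37 °C, then kept 48 h at 37 °C with indicator medium in 384-well plates, scoring wells that turned yellow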
Method: The study used the Ames microplate test (Ames MPF™ Penta 2 by Xenometrix, Allschwil, Switzerland). Growth medium, exposure medium, indicator medium, positive controls, hepatic microsomal fraction, NADP, glucose-6-phosphate, Salmonella typhimurium and Escherichia coli strains were components of the purchased experimental kit. Bacteria were grown overnight in growth medium. They were then exposed to the test compound at the appropriate concentration in exposure medium without or with the rat microsomal fraction S9 in 24-well plates for 90 min at 37 °C with shaking. Then, indicator medium was added to the wells and pipetted into 384-well plates, which were incubated for 48 hours at 37 °C without shaking. Results were assessed by counting the wells in which the medium turned yellow for each experimental condition.

[2] = tested on: Hepatocarcinoma HepG2; test: Safety, MTT test in HepG2; type: cell-based; details: 48 hours
Method: In order to test the safety of the compounds, both normal human cells were used: keratinocytes (HaCaT), fibroblasts (BJ), primary melanocytes that occur in the skin, as well as human cancer cells: the hepatocarcinoma line HepG2 and the neuroblastoma line SH-SY5Y, which are considered a model for the assessment of hepatocytotoxicity and neurocytotoxicity. The concentrations of the tested compounds in the range of 250-100 µM were used in the studies. The cell lines used in the research were purchased from the American Type Culture Collection (ATCC) and were cultured in media recommended by the manufacturer with the addition of FBS and antibiotics in an incubator ensuring appropriate culture conditions, i.e. humidity, temperature and CO2 concentration. Cells were seeded into multiwell plates and incubated with the test compounds for 48 hours. After this time, MTT and LDH tests were performed to assess cell viability. The MTT test is based on the ability to transform the substrate: [3-(4,5-dimethyl-2-thiazolyl)-2,5-diphenyl-2H-tetrazolium bromide into a colored product only by living cells. The absorbance at 570 nm, which corresponds to the absorption maximum for the product, is directly proportional to cell viability. The LDH test is based on testing the activity of the enzyme lactate dehydrogenase in the culture medium, which is released from cells as a result of damage to the cell membrane, e.g. as a result of cell death. Triton X-100 was used as a positive control in the test. The determination is colorimetric, the substrate is transformed by the released enzyme into a colored product, an increase in absorbance indicates a larger amount of the released enzyme, and thus confirms greater damage to cell membranes. Tables 7 and 8 present the results obtained, which correspond to the viability of cells incubated with the compounds in relation to the viability of cells constituting a control sample, i.e. incubated with the solvent (DMSO) at the same concentration as in the case of the groups tested in the MTT test or in relation to the results obtained for the Triton X-100 positive control in the LDH test. They indicate that the compounds are safe at the concentrations tested. Table 7. Viability of tested normal human cell lines: keratinocytes (HaCaT), fibroblasts (BJ) and primary melanocytes after incubation with the tested compounds - determination in the MTT test (% of solvent control ± SD) and LDH (percentage of positive control - Triton X-100.

[3] = tested on: Balb/c 3T3 murine fibroblast cell line; test: Phototoxicity in Balb/c 3T3 fibroblasts (neutral red uptake); details: for phototoxic potential: Balb/c 3T3, neutral red uptake; for PIF: photoirritation factor: ratio of IC50 of unirradiated to irradiated cells; for cytotoxicity towards the mouse fibroblasts: with and without exposure to UVA
Method: Balb/c 3T3 cells, which are an immortalized murine fibroblast cell line, were purchased at ATTC and cultured in the medium recommended by the manufacturer (DMEM GlutaMAX, newborn calf serum (BCS), antibiotics). After multiplication, cells were placed in 96-well plates, which were incubated for 24 hours, after which all wells of the plates were washed with 150 µL of balanced salt solution (HBSS). Then, after drying the plates, 100 µL of a solution of the tested compounds in HBSS with 2% FBS was added to each well and incubated for an hour. After this time, some of the plates were irradiated using the Suntest CPS+ sunlight simulator from Atlas with appropriate filters cutting off radiation with a wavelength <320 nm (UVA radiation intensity 5 J/cm^2). The second part of the plates was placed in radiation-free conditions for the same period of time. After the exposure time, the liquid was removed from all plates and the wells were washed twice with 150 µL of HBSS, then supplemented with fresh culture medium and incubated for 24 hours in an incubator (37 °C, 5% CO2). Viability was assessed in the neutral red uptake test, which is based on the ability of the dye to penetrate only into living cells. Dye uptake was confirmed by absorbance measurement at 540 nm. […] The appropriate coefficients were also calculated: mean phototoxic effect (MPE) and photoirritation factor (PIF). PIF is the ratio of the IC50 values of unirradiated to irradiated cells, while MPE is based on the comparison of concentration-response curves. […]

Row | SMILES | Increase in the number of yellow wells compared to the reference level ([1]; 0.5 mM, +S9) | Increase in the number of yellow wells compared to the reference level ([1]; 0.5 mM, without S9) | Increase in the number of yellow wells compared to the reference level ([1]; 1.0 mM, +S9) | Increase in the number of yellow wells compared to the reference level ([1]; 1.0 mM, without S9) | Increase in the number of yellow wells compared to the reference level ([1]; 2.0 mM, +S9) | Increase in the number of yellow wells compared to the reference level ([1]; 2.0 mM, without S9) | Hepatocarcinoma HepG2 MTT ([2]; 100 µM) | Hepatocarcinoma HepG2 MTT ([2]; 150 µM) | Hepatocarcinoma HepG2 MTT ([2]; 200 µM) | Hepatocarcinoma HepG2 MTT ([2]; 250 µM) | phototoxic potential [3] | PIF [3] | cytotoxicity towards the mouse fibroblasts [3]
1 | O=C(/C=C/c1ccccc1)NCCCCCCO [H-425/21, (E)-N-(6-hydroxyhexyl)cinnamic acid amide] | 0.54 | 1.04 | 0.40 | 0.59 | 0.94 | 0.45 | – | – | – | – | – | – | –
2 | O=C(/C=C/c1ccc(Cl)cc1)NCCCCCO [Compound A-111, (2E)-3-(4-chlorophenyl)-N-(5-hydroxypentyl)prop-2-enamide] | 0.58 | 0.55 | 0.35 | 0.18 | 0.23 | 1.65 | 101.10±6.01 % of solvent control | 97.87±3.27 % of solvent control | 98.19±3.27 % of solvent control | 96.27±2.57 % of solvent control | do not have phototoxic potential | No phototoxicity | devoid of cytotoxicity
3 | O=C(/C=C/c1ccc(Cl)cc1)NCCCO [H-330/21, (2E)-3-(4-chlorophenyl)-N-(3-hydroxypropyl)prop-2-enamide] | – | – | – | – | – | – | 100.73±4.51 % of solvent control | 100.44±3.93 % of solvent control | 100.86±6.41 % of solvent control | 93.16±1.71 % of solvent control | – | – | –
4 | O=C(/C=C/c1ccccc1)NCCCCCO [Compound A-133, (2E)-N-(5-hydroxypentyl)-3-phenylprop-2-enamide] | 0.47 | 0.92 | 0.23 | 0.55 | 0.35 | 1.10 | 104.96±7.60 % of solvent control | 100.66±7.39 % of solvent control | 99.09±1.60 % of solvent control | 98.92±2.34 % of solvent control | do not have phototoxic potential | No phototoxicity | devoid of cytotoxicity
5 | Cc1ccc(/C=C/C(=O)NCCCCCO)cc1 [H-415/21, (2E)-N-(5-hydroxypentyl)-3-(4-methylphenyl)prop-2-enamide] | – | 0.21 | – | 0.41 | – | 0.10 | 100.32±1.75 % of solvent control | 99.54±5.74 % of solvent control | 100.53±3.98 % of solvent control | 98.90±4.21 % of solvent control | – | – | –
6 | O=C(/C=C/c1ccc(Cl)cc1)NCCO [H-427/21, (2E)-3-(4-chlorophenyl)-N-(2-hydroxyethyl)prop-2-enamide] | – | – | – | – | – | – | 99.61±4.37 % of solvent control | 98.44±3.94 % of solvent control | 97.07±4.00 % of solvent control | 100.08±10.58 % of solvent control | – | – | –
